Assay results taken from article PMC11167782, “Tunlametinib (HL-085) plus vemurafenib in patients with advanced BRAF V600-mutant solid tumors: an open-label, single-arm, multicenter, phase I study” (Experimental Hematology & Oncology, 2024).

Legend:
[1] = Phase I study: plasma pharmacokinetics (UPLC-MS/MS); conditions: for AUC(0-t) / AUC / Cmax / Tmax: human, plasma; for AUC(0-t): AUClast; for AUC(0-t) / AUC / Cmax: mean (SD); for AUC: AUCtau
Protocol: PK assessments were performed using a validated ultra-performance liquid chromatography-tandem mass spectrometry method.
All samples analyzed within established storage stability periods.

[2] = test system: patients; set-up: method as in PMID 21639808; conditions: phase III trial; cited from earlier work
[3] = test system: CYP3A4; set-up: method as in earlier work; conditions: cited from earlier work
[4] = test system: BRAF V600-mutant PTC; set-up: method as in PMID 35658604; conditions: monotherapy; cited from earlier work
[5] = test system: BRAF V600-mutant NSCLC; conditions: monotherapy; cited from earlier work
[6] = Multiple dose, Tunlametinib 9mg BID + vemurafenib 720mg BID
[7] = Multiple dose, Tunlametinib 9mg BID + vemurafenib 960mg BID
[8] = Multiple dose, Tunlametinib 12mg BID + vemurafenib 720mg BID
[9] = Multiple dose, Tunlametinib 12mg BID + vemurafenib 960mg BID
[10] = Multiple dose, Vemurafenib 720mg BID Total
[11] = Multiple dose, Vemurafenib 960mg Total
[12] = Single dose, Tunlametinib 9mg BID + vemurafenib 720mg BID
[13] = Single dose, Tunlametinib 9mg BID + vemurafenib 960mg BID
[14] = Single dose, Tunlametinib 12mg BID + vemurafenib 720mg BID
[15] = Single dose, Tunlametinib 12mg BID + vemurafenib 960mg BID
[16] = 720 mg, Multiple dose, Vemurafenib 720mg BID Total
[17] = 720 mg, Single dose, Vemurafenib 720mg BID Total
[18] = 960 mg, Multiple dose, Vemurafenib 960mg Total
[19] = 960 mg, Single dose, Vemurafenib 960mg Total
[20] = vemurafenib, multiple administrations, across doses

SMILES: CCCS(=O)(=O)Nc1ccc(F)c(C(=O)c2c[nH]c3ncc(-c4ccc(Cl)cc4)cc23)c1F [Vemurafenib, vemurafenib]
- Cavg, mean (SD) [1, 6]: 29792.81 (1092.82) ng/mL
- Fluctuation%, mean (SD) [1, 6]: 37.17 (4.45) %
- RAUClast (accumulation ratio), mean (SD) [1, 6]: 11.76 (5.15)
- RCmax (accumulation ratio), mean (SD) [1, 6]: 8.92 (3.76)
- Cavg, mean (SD) [1, 7]: 47113.74 (NC) ng/mL
- Fluctuation%, mean (SD) [1, 7]: 19.95 (NC) %
- RAUClast (accumulation ratio), mean (SD) [1, 7]: 36.26 (58.5)
- RCmax (accumulation ratio), mean (SD) [1, 7]: 16.01 (16.13)
- Cavg, mean (SD) [1, 8]: 34081.99 (20393.59) ng/mL
- Fluctuation%, mean (SD) [1, 8]: 36.48 (16.11) %
- RAUClast (accumulation ratio), mean (SD) [1, 8]: 10.61 (4.88)
- RAUCtau (accumulation ratio), mean (SD) [1, 8]: 13.29 (4.87)
- RCmax (accumulation ratio), mean (SD) [1, 8]: 8.54 (4.03)
- Cavg, mean (SD) [1, 9]: 28324.83 (NC) ng/mL
- Fluctuation%, mean (SD) [1, 9]: 25.42 (NC) %
- RAUClast (accumulation ratio), mean (SD) [1, 9]: 10.75 (2.55)
- RCmax (accumulation ratio), mean (SD) [1, 9]: 8.23 (1.79)
- Cavg, mean (SD) [1, 10]: 32652.26 (15958.81) ng/mL
- Fluctuation%, mean (SD) [1, 10]: 36.71 (12.64) %
- RAUClast (accumulation ratio), mean (SD) [1, 10]: 11.10 (4.84)
- RAUCtau (accumulation ratio), mean (SD) [1, 10]: 13.29 (4.87)
- RCmax (accumulation ratio), mean (SD) [1, 10]: 8.70 (3.77)
- Cavg, mean (SD) [1, 11]: 45227.97 (17802.57) ng/mL
- Fluctuation%, mean (SD) [1, 11]: 29.65 (16.23) %
- RAUClast (accumulation ratio), mean (SD) [1, 11]: 23.92 (39.19)
- RAUCtau (accumulation ratio), mean (SD) [1, 11]: 14.07 (NC)
- RCmax (accumulation ratio), mean (SD) [1, 11]: 13.22 (11.54)
- AUC_%Extrap, mean (SD) [1, 12]: 56.66 (6.57) %
- AUC_%Extrap, mean (SD) [1, 13]: 57.98 (NC) %
- AUC_%Extrap, mean (SD) [1, 14]: 61.30 (6.78) %
- AUC_%Extrap, mean (SD) [1, 15]: 64.58 (NC) %
- AUC_%Extrap, mean (SD) ([1]; Single dose, Vemurafenib 720mg BID Total): 60.37 (6.66) %
- AUC_%Extrap, mean (SD) ([1]; Single dose, Vemurafenib 960mg Total): 61.29 (11.94) %
- AUC(0-t) [1, 16]: 372 µg·h/mL
- AUC(0-t) [1, 17]: 39.3 µg·h/mL
- AUC [1, 16]: 392 µg·h/mL
- AUC [1, 17]: 41 µg·h/mL
- Cmax [1, 16]: 36600 ng/mL
- Cmax [1, 17]: 4890 ng/mL
- Tmax ([1]; 720 mg, Tmax, median (range), Multiple dose, Vemurafenib 720mg BID Total): 2.07 h
- Tmax ([1]; 720 mg, Tmax, median (range), Single dose, Vemurafenib 720mg BID Total): 4 h
- AUC(0-t) [1, 18]: 503 µg·h/mL
- AUC(0-t) [1, 19]: 50.5 µg·h/mL
- AUC [1, 18]: 543 µg·h/mL
- AUC [1, 19]: 61.2 µg·h/mL
- Cmax [1, 18]: 48300 ng/mL
- Cmax [1, 19]: 6220 ng/mL
- Tmax ([1]; 960 mg, Tmax, median (range), Multiple dose, Vemurafenib 960mg Total): 3.99 h
- Tmax ([1]; 960 mg, Tmax, median (range), Single dose, Vemurafenib 960mg Total): 4.01 h
- AUC(0-t) [1, 6]: 376 µg·h/mL
- AUC(0-t) [1, 7]: 530 µg·h/mL
- AUC(0-t) [1, 8]: 379 µg·h/mL
- AUC(0-t) [1, 9]: 456 µg·h/mL
- AUC(0-t) [1, 12]: 45.8 µg·h/mL
- AUC(0-t) [1, 13]: 65.3 µg·h/mL
- AUC(0-t) [1, 14]: 37.2 µg·h/mL
- AUC(0-t) [1, 15]: 47.1 µg·h/mL
- AUC [1, 6]: 358 µg·h/mL
- AUC [1, 7]: 565 µg·h/mL
- AUC [1, 8]: 409 µg·h/mL
- AUC [1, 9]: 340 µg·h/mL
- AUC [1, 12]: 55.2 µg·h/mL
- AUC [1, 13]: 118 µg·h/mL
- AUC [1, 14]: 38.2 µg·h/mL
- AUC [1, 15]: 37.7 µg·h/mL
- Cmax [1, 6]: 37400 ng/mL
- Cmax [1, 7]: 49200 ng/mL
- Cmax [1, 8]: 36800 ng/mL
- Cmax [1, 9]: 42800 ng/mL
- Cmax [1, 12]: 5710 ng/mL
- Cmax [1, 13]: 7360 ng/mL
- Cmax [1, 14]: 4610 ng/mL
- Cmax [1, 15]: 5710 ng/mL
- Tmax ([1]; Tmax, median (range), Multiple dose, Tunlametinib 9mg BID + vemurafenib 720mg BID): 3.92 h
- Tmax ([1]; Tmax, median (range), Multiple dose, Tunlametinib 9mg BID + vemurafenib 960mg BID): 4.07 h
- Tmax ([1]; Tmax, median (range), Multiple dose, Tunlametinib 12mg BID + vemurafenib 720mg BID): 1.93 h
- Tmax ([1]; Tmax, median (range), Multiple dose, Tunlametinib 12mg BID + vemurafenib 960mg BID): 3.95 h
- Tmax ([1]; Tmax, median (range), Single dose, Tunlametinib 9mg BID + vemurafenib 720mg BID): 4 h
- Tmax ([1]; Tmax, median (range), Single dose, Tunlametinib 9mg BID + vemurafenib 960mg BID): 3.96 h
- Tmax ([1]; Tmax, median (range), Single dose, Tunlametinib 12mg BID + vemurafenib 720mg BID): 4 h
- Tmax ([1]; Tmax, median (range), Single dose, Tunlametinib 12mg BID + vemurafenib 960mg BID): 4.07 h
- Tmax ([1]; oral, Median Tmax, vemurafenib, single-dose): ~4 h
- Average accumulation ratio based on AUClast [1, 20]: 10.6 to 36.3
- Average accumulation ratio based on AUCtau [1, 20]: 13.3 to 14.1
- Average accumulation ratio based on Cmax [1, 20]: 8.2 to 16.0
- Incidence of photosensitivity [2]: 30%
- Main metabolizing enzyme [3]: metabolized mainly by CYP3A4

SMILES: CC(C)(C)c1nc(-c2cccc(NS(=O)(=O)c3c(F)cccc3F)c2F)c(-c2ccnc(N)n2)s1 [dabrafenib]
- ORR [4]: 35%
- Median PFS [5]: 5.5 months
- ORR [5]: 33%
